{
  "source": "ChEMBL document CHEMBL1131484",
  "about": "“Human growth hormone-releasing hormone hGHRH(1-29)-NH2: systematic structure-activity relationship studies” (J Med Chem, 1998)",
  "note": "Several values for one entry are separate records, joined by “and”; a condition that tells them apart may be missing. Equal entries are not always repeated. Bridge positions count the residues as written; N and C are the ends. Square brackets hold non-standard residues; d marks the D form. Peptide text beside a SMILES is read from it. αMeY = C[C@](N)(Cc1ccc(O)cc1)C(=O)O; Nle = CCCC[C@H](N)C(=O)O",
  "data": [
    {"target": "T1, Growth hormone-releasing hormone receptor (Rattus norvegicus) (UniProt Q02644)", "T1 sequence (whole entry)": "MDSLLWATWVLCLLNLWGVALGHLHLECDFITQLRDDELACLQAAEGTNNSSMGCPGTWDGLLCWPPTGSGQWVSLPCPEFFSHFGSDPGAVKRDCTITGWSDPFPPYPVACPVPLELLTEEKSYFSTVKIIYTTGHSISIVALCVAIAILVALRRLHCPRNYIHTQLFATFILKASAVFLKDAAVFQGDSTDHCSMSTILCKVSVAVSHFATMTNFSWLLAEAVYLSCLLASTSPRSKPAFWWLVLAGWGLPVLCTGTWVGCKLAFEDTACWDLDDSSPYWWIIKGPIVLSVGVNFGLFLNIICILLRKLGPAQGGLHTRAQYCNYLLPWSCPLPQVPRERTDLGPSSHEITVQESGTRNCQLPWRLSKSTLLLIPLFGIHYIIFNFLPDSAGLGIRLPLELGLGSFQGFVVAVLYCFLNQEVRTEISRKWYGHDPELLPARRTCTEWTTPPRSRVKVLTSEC", "assay": "Potency for growth hormone releasing hormone receptor (GHRFR) relative to human GHRH(1-40)OH- in the rat pituitary cell culture assay", "assay_type": "functional, cell-based", "settings": "Pituitary gland cell", "values": [
      {"smiles": "CCCC[C@H]1NC(=O)[C@H]([C@@H](C)CC)NC(=O)[C@H](NC(=O)[C@H](Cc2c[nH]cn2)NC(=O)[C@H](CC(C)C)NC(=O)[C@H](CC(C)C)NC(=O)[C@H](CCCCN)NC(=O)[C@H](CCCN=C(N)N)NC(=O)[C@H](Cc2ccccc2)NC(=O)[C@@H](NC(=O)[C@H](CC(C)C)NC(=O)[C@H](CCC(N)=O)NC(=O)[C@H](C)NC(=O)[C@H](CC(C)C)NC(=O)[C@@H](NC(=O)[C@H](CCCN=C(N)N)NC(=O)[C@H](CCCN=C(N)N)NC(=O)[C@H](Cc2ccc(O)cc2)NC(=O)[C@H](CO)NC(=O)[C@H](CO)NC(=O)[C@@H](NC(=O)[C@H](Cc2ccccc2)NC(=O)[C@@H](NC(=O)[C@H](C)NC(=O)[C@H](CC(=O)O)NC(=O)[C@H](C)NC(=O)[C@@](C)(N)Cc2c[nH]cn2)[C@@H](C)CC)[C@@H](C)O)[C@@H](C)CC)[C@@H](C)CC)CSSC[C@@H](C(N)=O)NC(=O)[C@H](CC(N)=O)NC1=O", "Relative potency": "1.9 and 4.4"},
      {"smiles": "CC[C@H](C)[C@H](NC(=O)[C@H](C)NC(=O)[C@H](CC(=O)O)NC(=O)[C@H](C)NC(=O)[C@@H](N)Cc1ccc(O)cc1)C(=O)N[C@@H](Cc1ccccc1)C(=O)N[C@H](C(=O)N[C@@H](CC(N)=O)C(=O)N[C@@H](CO)C(=O)N[C@@H](Cc1ccc(O)cc1)C(=O)N[C@@H](CCCN=C(N)N)C(=O)N[C@@H](CCCCN)C(=O)N[C@H](C(=O)N[C@@H](CC(C)C)C(=O)NCC(=O)N[C@@H](CCC(N)=O)C(=O)N[C@@H](CC(C)C)C(=O)N[C@@H](CO)C(=O)N[C@@H](C)C(=O)N[C@H](CCCN=C(N)N)C(=O)N[C@H](CCCCN)C(=O)N[C@H](CC(C)C)C(=O)N[C@H](CC(C)C)C(=O)N[C@@H]1CCC(=O)NCCCC[C@@H](C(=O)N[C@@H](CO)C(=O)N[C@@H](CCCN=C(N)N)C(N)=O)NC(=O)[C@H]([C@@H](C)CC)NC(=O)[C@@H](CC(=O)O)NC1=O)C(C)C)[C@@H](C)O", "Relative potency": 1.3},
      {"smiles": "CC[C@H](C)[C@H](NC(=O)[C@H](C)NC(=O)[C@H](CC(=O)O)NC(=O)[C@H](C)NC(=O)[C@@H](N)Cc1ccc(O)cc1)C(=O)N[C@@H](Cc1ccccc1)C(=O)N[C@H](C(=O)N[C@@H](CC(N)=O)C(=O)N[C@@H](CO)C(=O)N[C@@H](Cc1ccc(O)cc1)C(=O)N[C@@H](CCCN=C(N)N)C(=O)N[C@@H](CCCCN)C(=O)N[C@H](C(=O)N[C@@H](CC(C)C)C(=O)NCC(=O)N[C@@H](CCC(N)=O)C(=O)N[C@@H]1CCC(=O)NCCCC[C@@H](C(=O)N[C@H](CCCCN)C(=O)N[C@@H](CC(C)C)C(=O)N[C@@H](CC(C)C)C(=O)N[C@@H](CCC(N)=O)C(=O)N[C@@H](CC(=O)O)C(=O)N[C@H](C(=O)N[C@@H](CCSC)C(=O)N[C@@H](CO)C(=O)N[C@@H](CCCN=C(N)N)C(N)=O)[C@@H](C)CC)NC(=O)[C@H](C)NC(=O)[C@@H](CO)NC1=O)C(C)C)[C@@H](C)O", "Relative potency": 0.23},
      {"smiles": "CC[C@H](C)[C@H](NC(=O)[C@H](C)NC(=O)[C@H](CC(=O)O)NC(=O)[C@H](C)NC(=O)[C@@H](N)Cc1ccc(O)cc1)C(=O)N[C@@H](Cc1ccccc1)C(=O)N[C@H](C(=O)N[C@@H](CC(N)=O)C(=O)N[C@@H](CO)C(=O)N[C@@H](Cc1ccc(O)cc1)C(=O)N[C@@H](CCCN=C(N)N)C(=O)N[C@@H](CCCCN)C(=O)N[C@H](C(=O)N[C@@H](CC(C)C)C(=O)NCC(=O)N[C@H](CCC(N)=O)C(=O)N[C@H](CC(C)C)C(=O)N[C@H](CO)C(=O)N[C@H](C)C(=O)N[C@H](CCCN=C(N)N)C(=O)N[C@H](CCCCN)C(=O)N[C@@H]1CCC(=O)NCCCC[C@@H](C(=O)N[C@H](C(=O)N[C@@H](CCSC)C(=O)N[C@@H](CO)C(=O)N[C@@H](CCCN=C(N)N)C(N)=O)[C@@H](C)CC)NC(=O)[C@H](CCC(N)=O)NC(=O)[C@@H](CC(C)C)NC1=O)C(C)C)[C@@H](C)O", "Relative potency": "5.3 and 8.8"},
      {"smiles": "CC[C@H](C)[C@H](NC(=O)[C@H](C)NC(=O)[C@H](CC(=O)O)NC(=O)[C@H](C)NC(=O)[C@@H](N)Cc1ccc(O)cc1)C(=O)N[C@@H](Cc1ccccc1)C(=O)N[C@H](C(=O)N[C@@H](CC(N)=O)C(=O)N[C@@H](CO)C(=O)N[C@@H](Cc1ccc(O)cc1)C(=O)N[C@@H](CCCN=C(N)N)C(=O)N[C@@H](CCCCN)C(=O)N[C@H](C(=O)N[C@H]1CCC(=O)NCCCC[C@@H](C(=O)N[C@@H](CO)C(=O)N[C@@H](C)C(=O)N[C@@H](CCCN=C(N)N)C(=O)N[C@@H](CCCCN)C(=O)N[C@@H](CC(C)C)C(=O)N[C@@H](CC(C)C)C(=O)N[C@@H](CCC(N)=O)C(=O)N[C@@H](CC(=O)O)C(=O)N[C@H](C(=O)N[C@@H](CCSC)C(=O)N[C@@H](CO)C(=O)N[C@@H](CCCN=C(N)N)C(N)=O)[C@@H](C)CC)NC(=O)[C@H](CCC(N)=O)NC(=O)CNC1=O)C(C)C)[C@@H](C)O", "note": "(H-YADAIFTNSYRKVEGQKSARKLLQDIMSR-NH2; lactam 14-17)", "Relative potency": 0.026},
      {"smiles": "CC[C@H](C)[C@H](NC(=O)[C@H](C)NC(=O)[C@H](CC(=O)O)NC(=O)[C@H](C)NC(=O)[C@@](C)(N)Cc1ccc(O)cc1)C(=O)N[C@@H](Cc1ccccc1)C(=O)N[C@H](C(=O)N[C@@H](C)C(=O)N[C@@H](C)C(=O)N[C@@H](Cc1ccc(O)cc1)C(=O)N[C@@H](CCCN=C(N)N)C(=O)N[C@@H](CCCCN)C(=O)N[C@H](C(=O)N[C@@H](CC(C)C)C(=O)N[C@@H](C)C(=O)N[C@@H](CCC(N)=O)C(=O)N[C@@H](CC(C)C)C(=O)N[C@@H](CO)C(=O)N[C@@H](C)C(=O)N[C@@H](CCCN=C(N)N)C(=O)N[C@@H](CCCCN)C(=O)N[C@@H](C)C(=O)N[C@@H](CC(C)C)C(=O)N[C@@H](CCC(N)=O)C(=O)N[C@@H](CC(=O)O)C(=O)N[C@H](C(=O)N[C@@H](CCSC)C(=O)N[C@@H](C)C(=O)N[C@@H](CCCN=C(N)N)C(N)=O)[C@@H](C)CC)C(C)C)[C@@H](C)O", "note": "(H-[αMeY]ADAIFTAAYRKVLAQLSARKALQDIMAR-NH2)", "Relative potency": 11.2},
      {"smiles": "CC[C@H](C)[C@H](NC(=O)[C@H](C)NC(=O)[C@H](CC(=O)O)NC(=O)[C@H](C)NC(=O)[C@@](C)(N)Cc1ccc(O)cc1)C(=O)N[C@@H](Cc1ccccc1)C(=O)N[C@H](C(=O)N[C@@H](CC(N)=O)C(=O)N[C@@H](CO)C(=O)N[C@@H](Cc1ccc(O)cc1)C(=O)N[C@@H](CCCN=C(N)N)C(=O)N[C@@H](CCCCN)C(=O)N[C@H](C(=O)N[C@@H](CC(C)C)C(=O)N[C@@H](C)C(=O)N[C@@H](CCC(N)=O)C(=O)N[C@@H](CC(C)C)C(=O)N[C@@H](CO)C(=O)N[C@@H](C)C(=O)N[C@@H](CCCN=C(N)N)C(=O)N[C@@H](CCCCN)C(=O)N[C@@H](C)C(=O)N[C@@H](CC(C)C)C(=O)N[C@@H](CCC(N)=O)C(=O)N[C@@H](CC(=O)O)C(=O)N[C@H](C(=O)N[C@@H](CCSC)C(=O)N[C@@H](CO)C(=O)N[C@@H](CCCN=C(N)N)C(N)=O)[C@@H](C)CC)C(C)C)[C@@H](C)O", "note": "(H-[αMeY]ADAIFTNSYRKVLAQLSARKALQDIMSR-NH2)", "Relative potency": 25.6},
      {"smiles": "CCCC[C@H](NC(=O)[C@@H](NC(=O)[C@H](CC(=O)O)NC(=O)[C@H](CCC(N)=O)NC(=O)[C@H](CC(C)C)NC(=O)[C@H](CC(C)C)NC(=O)[C@H](CCCCN)NC(=O)[C@H](CCCN=C(N)N)NC(=O)[C@H](C)NC(=O)[C@H](CO)NC(=O)[C@H](CC(C)C)NC(=O)[C@H](CCC(N)=O)NC(=O)[C@H](C)NC(=O)[C@H](CC(C)C)NC(=O)[C@@H](NC(=O)[C@H](CCCCN)NC(=O)[C@H](CCCN=C(N)N)NC(=O)[C@H](Cc1ccc(O)cc1)NC(=O)[C@H](CO)NC(=O)[C@H](CC(N)=O)NC(=O)[C@@H](NC(=O)[C@H](Cc1ccccc1)NC(=O)[C@@H](NC(=O)[C@H](C)NC(=O)[C@H](CC(=O)O)NC(=O)[C@H](C)NC(=O)[C@@](C)(N)Cc1ccc(O)cc1)[C@@H](C)CC)[C@@H](C)O)C(C)C)[C@@H](C)CC)C(=O)N[C@@H](CO)C(=O)N[C@@H](CCCN=C(N)N)C(N)=O", "note": "(H-[αMeY]ADAIFTNSYRKVLAQLSARKLLQDI[Nle]SR-NH2)", "Relative potency": 5.8}
    ]}
  ]
}
